Measured values reported in ChEMBL document CHEMBL5678818, “Discovery of potent SOS1 inhibitors that block RAS activation via disruption of the RAS-SOS1 interaction” (Proc Natl Acad Sci U S A, 2019).

Legend:
[1] = target: Macrophage colony-stimulating factor 1 receptor (Homo sapiens) (UniProt P07333); assay: Inhibition of autoinhibited CSF1R (unknown origin) assessed as residual activity at 1000 nM by KINOMEscan analysis relative to control
[2] = target: T1, Ephrin type-A receptor 1 (Homo sapiens) (UniProt P21709); assay: Inhibition of EPHA1 (unknown origin) assessed as residual activity at 1000 nM by KINOMEscan analysis relative to control
T1 sequence (whole entry): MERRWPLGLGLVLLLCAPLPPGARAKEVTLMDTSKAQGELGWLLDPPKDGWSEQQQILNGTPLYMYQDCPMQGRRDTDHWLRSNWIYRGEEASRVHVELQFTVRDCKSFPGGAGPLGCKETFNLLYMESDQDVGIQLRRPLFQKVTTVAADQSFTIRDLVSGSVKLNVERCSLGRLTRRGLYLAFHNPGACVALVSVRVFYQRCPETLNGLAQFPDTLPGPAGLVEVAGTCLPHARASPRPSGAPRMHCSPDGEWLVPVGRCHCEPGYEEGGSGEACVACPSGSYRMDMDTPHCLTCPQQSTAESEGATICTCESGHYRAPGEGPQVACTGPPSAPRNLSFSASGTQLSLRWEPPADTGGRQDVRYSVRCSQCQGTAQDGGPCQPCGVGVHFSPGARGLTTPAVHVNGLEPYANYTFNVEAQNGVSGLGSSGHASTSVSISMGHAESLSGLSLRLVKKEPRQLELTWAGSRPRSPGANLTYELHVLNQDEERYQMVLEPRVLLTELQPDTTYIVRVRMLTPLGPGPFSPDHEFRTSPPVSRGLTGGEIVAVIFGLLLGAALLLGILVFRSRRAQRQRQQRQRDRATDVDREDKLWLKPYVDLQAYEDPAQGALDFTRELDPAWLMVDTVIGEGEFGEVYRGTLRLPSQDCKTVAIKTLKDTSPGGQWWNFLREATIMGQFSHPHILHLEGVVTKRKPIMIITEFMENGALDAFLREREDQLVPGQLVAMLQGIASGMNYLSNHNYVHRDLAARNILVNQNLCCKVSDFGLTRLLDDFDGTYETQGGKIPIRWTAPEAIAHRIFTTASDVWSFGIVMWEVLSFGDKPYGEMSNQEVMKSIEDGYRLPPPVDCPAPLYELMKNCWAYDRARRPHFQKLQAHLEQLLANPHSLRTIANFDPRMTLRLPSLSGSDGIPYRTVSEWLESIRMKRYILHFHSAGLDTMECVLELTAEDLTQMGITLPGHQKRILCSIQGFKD

[3] = target: Ribosomal protein S6 kinase alpha-1 (Homo sapiens) (UniProt Q15418); assay: Inhibition of C-terminal RSK1 kinetic domain 2 (unknown origin) assessed as residual activity at 1000 nM by KINOMEscan analysis relative to control
Ribosomal protein S6 kinase alpha-1 (Homo sapiens), sequence (Q15418 whole entry, the tested form may be a part): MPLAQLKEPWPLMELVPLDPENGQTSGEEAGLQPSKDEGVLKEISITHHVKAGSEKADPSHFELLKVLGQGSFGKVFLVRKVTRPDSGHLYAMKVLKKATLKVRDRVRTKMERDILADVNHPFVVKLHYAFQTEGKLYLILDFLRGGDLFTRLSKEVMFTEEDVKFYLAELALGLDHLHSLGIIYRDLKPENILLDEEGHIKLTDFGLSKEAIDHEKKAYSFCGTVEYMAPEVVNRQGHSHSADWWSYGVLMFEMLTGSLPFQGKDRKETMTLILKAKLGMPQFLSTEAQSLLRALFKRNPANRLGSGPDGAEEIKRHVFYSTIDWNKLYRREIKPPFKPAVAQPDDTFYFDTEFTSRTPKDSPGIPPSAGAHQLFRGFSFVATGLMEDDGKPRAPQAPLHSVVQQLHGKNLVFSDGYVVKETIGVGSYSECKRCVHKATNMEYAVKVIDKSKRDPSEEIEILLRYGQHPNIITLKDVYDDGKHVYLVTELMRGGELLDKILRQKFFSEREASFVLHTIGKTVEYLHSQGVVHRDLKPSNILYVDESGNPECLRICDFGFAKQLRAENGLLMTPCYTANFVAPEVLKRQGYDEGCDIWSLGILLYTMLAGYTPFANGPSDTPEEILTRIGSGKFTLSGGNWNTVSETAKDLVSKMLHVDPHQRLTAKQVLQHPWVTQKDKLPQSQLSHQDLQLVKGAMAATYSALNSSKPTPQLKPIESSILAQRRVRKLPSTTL

[4] = target: T2, Son of sevenless homolog 1 (Homo sapiens) (UniProt Q07889); assay: Stabilization of N-terminal His10-tagged wild-type recombinant human SOS1 catalytic domain (564 to 1049 residues) expressed in Escherichia coli assessed as change in melting temperature at 100 uM with heating from 25 to 85 degreeC by thermal shift assay
T2 sequence (whole entry): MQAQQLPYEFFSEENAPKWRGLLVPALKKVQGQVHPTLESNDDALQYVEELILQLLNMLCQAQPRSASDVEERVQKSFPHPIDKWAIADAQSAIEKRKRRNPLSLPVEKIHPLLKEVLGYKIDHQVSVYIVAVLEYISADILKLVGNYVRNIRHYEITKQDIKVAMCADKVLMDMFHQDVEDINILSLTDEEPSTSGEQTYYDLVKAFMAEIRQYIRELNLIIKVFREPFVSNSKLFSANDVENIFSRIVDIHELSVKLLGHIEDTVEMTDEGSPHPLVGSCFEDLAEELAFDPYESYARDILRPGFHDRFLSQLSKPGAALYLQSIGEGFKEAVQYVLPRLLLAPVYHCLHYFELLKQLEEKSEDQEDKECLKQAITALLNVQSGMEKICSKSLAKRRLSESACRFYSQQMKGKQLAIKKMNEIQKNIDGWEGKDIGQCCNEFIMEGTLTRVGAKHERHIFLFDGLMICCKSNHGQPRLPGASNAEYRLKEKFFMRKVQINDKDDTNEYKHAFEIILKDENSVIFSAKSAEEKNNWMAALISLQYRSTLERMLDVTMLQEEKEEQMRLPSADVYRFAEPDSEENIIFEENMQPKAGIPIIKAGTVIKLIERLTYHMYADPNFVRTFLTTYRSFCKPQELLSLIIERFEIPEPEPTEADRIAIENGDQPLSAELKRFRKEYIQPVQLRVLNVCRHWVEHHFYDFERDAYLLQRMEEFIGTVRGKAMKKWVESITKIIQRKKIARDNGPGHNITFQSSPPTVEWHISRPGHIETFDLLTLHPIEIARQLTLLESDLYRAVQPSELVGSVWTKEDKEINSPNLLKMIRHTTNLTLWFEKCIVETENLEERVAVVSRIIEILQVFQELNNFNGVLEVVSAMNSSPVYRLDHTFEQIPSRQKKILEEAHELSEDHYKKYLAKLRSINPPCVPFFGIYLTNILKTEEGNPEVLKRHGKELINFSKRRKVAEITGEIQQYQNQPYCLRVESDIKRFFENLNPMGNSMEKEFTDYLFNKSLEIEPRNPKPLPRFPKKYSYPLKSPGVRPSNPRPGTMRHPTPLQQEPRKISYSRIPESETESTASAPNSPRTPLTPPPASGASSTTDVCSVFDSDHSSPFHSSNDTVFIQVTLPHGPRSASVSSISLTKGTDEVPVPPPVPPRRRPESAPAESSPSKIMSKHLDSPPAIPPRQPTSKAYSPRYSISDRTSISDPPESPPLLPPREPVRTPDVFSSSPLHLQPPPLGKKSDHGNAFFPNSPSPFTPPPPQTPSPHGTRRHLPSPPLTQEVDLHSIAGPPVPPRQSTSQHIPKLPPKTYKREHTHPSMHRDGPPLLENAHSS

Macrophage colony-stimulating factor 1 receptor (Homo sapiens), sequence (P07333 whole entry): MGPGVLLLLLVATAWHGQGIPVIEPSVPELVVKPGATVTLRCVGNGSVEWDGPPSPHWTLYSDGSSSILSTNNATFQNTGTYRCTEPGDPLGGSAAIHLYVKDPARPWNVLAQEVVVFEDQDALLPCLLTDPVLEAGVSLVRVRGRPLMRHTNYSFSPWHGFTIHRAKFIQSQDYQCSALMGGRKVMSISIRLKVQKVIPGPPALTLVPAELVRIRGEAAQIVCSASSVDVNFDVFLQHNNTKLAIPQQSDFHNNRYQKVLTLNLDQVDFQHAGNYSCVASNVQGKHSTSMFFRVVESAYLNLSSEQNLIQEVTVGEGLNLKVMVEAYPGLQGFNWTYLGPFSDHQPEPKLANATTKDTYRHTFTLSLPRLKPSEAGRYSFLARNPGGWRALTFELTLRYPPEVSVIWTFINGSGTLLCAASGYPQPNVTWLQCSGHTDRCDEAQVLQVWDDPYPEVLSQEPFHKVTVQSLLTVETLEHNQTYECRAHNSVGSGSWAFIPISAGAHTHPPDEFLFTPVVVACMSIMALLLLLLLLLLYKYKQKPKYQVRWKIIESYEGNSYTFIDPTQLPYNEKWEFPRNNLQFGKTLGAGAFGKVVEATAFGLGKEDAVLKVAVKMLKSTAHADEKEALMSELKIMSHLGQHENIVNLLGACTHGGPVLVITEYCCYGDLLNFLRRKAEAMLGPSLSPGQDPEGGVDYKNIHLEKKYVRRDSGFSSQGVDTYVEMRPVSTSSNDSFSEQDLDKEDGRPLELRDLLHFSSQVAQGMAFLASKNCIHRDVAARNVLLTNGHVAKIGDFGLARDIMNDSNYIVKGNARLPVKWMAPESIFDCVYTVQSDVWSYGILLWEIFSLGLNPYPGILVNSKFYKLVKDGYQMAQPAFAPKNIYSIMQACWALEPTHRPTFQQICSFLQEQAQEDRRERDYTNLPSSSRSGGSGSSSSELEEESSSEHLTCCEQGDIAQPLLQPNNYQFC

Row | Compound | Activity [1] [%] | Activity [2] [%] | Activity [3] [%] | ΔTm [4] [°C]
1 | COc1cc2nc(C)nc(N[C@H](C)c3cccc(-c4cn[nH]c4)c3)c2cc1OC | 97 | 39 | 99 | –
2 | CNCc1ccccc1-c1csc([C@@H](C)Nc2nc(C)nc3cc(OC)c(OC)cc23)c1 [BAY-293] | – | – | – | 3.17
3 | COc1cc2ncnc(N[C@H](C)c3cccc4ccccc34)c2cc1OC | 93 | 100 | 100 | 2.5
